{
  "source": "patent US20190030053A1",
  "about": "“COMPOSITION FOR INCREASING EXPRESSION OF PGC-1alpha” (BENEBIOSIS CO., LTD., priority 2016, published 2019)",
  "key": {"[1]": {"test_system": "Alzheimer's disease model mice (3×Tg)", "test": "Cognitive ability test (Morris water maze) in Alzheimer's disease models", "assay_type": "in vivo, mouse", "conditions": "3×Tg mice, oral 0.1 mg/kg/day; test for 7 days", "from_the_text": "(§1) In order to investigate the changes in gene expression and cognitive ability by the treatment with SL (3′-SL & 6′-SL) compositions in Alzheimer's brain disease models, 6-week-old mice were purchased from Central Lab Animal (Korea). Water was freely accessible, and a commercially available pellet feed (Dooyeul Biotech, Korea) was given for two weeks. At 8 weeks of age, the mice were divided into three groups (composed of eight mice for each group): Eight 8-week-old male c57/BL6 mice (normal mice; initial body weight, average 35.6±3.3 g) treated with a normal diet were used for a control group. […]"}, "PGC-1α and related genes": {"test_system": "PGC-1α and related genes", "test": "Gene expression in brain and hippocampus of Huntington's disease models", "assay_type": "in vivo, mouse", "conditions": "R6/2 mice, oral 0.1 mg/kg/day, 10 weeks", "from_the_text": "as §1, with “Huntington's” for “Alzheimer's”, “model, 4-week-old” for “models, 6-week-old”, “one week.” for “two weeks.”, “5” for “8”, “5-week-old” for “8-week-old”, “25.3±4.3” for “35.6±3.3”\nSialyllactose or DW was orally administered daily. […] The dietary intake and body weight change were measured every 5 days. […]\nThe gene expression changes by the treatment with SL (3′-SL & 6′-SL) compositions were quantitatively compared in two main organs (brain and hippocampus) associated with bran diseases. RNA was extracted by TRIzol agent (Invitrogen). cDNA was synthesized by using RNA, which has been extracted as above and quantified, and a reverse transcription system (Promega, USA). The expression patterns of PGC-1α and related genes were measured by using pre-designed primers and probes (Applied Biosystems; PGC-1α, Mm00447181_m1, GAPDH, and Mm99999915_q1) for the synthesized cDNA and analysis targets (Fndc5, PGC-1α, Erra, UCP1, BDNF, SOD2, and GPX1). […]"}},
  "data": [
    {"molecule": "CC(=O)N[C@H]1[C@H]([C@H](O)[C@H](O)CO)O[C@@](O[C@H]2[C@@H](O)[C@@H](CO)O[C@@H](O[C@H]3[C@H](O)[C@@H](O)C(O)O[C@@H]3CO)[C@@H]2O)(C(=O)O)C[C@@H]1O", "note": "(stereo partly drawn) [3′-SL, α-NeuNAc-(2→3)-β-D-Gal-(1→4)-D-Glc]", "values": [
      {"measurement": "escape time in the cognitive ability test (Morris water maze)", "setting": "[1]", "value": "relatively low compared with 6′-SL"},
      {"measurement": "expression levels of PGC-1α and related genes vs SL non-administration (Huntington's disease model) group", "setting": "PGC-1α and related genes", "value": "relatively low compared with 6′-SL"}
    ]},
    {"molecule": "CC(=O)N[C@H]1[C@H]([C@H](O)[C@H](O)CO)O[C@@](OC[C@H]2O[C@@H](O[C@H]3[C@H](O)[C@@H](O)[C@H](O)O[C@@H]3CO)[C@H](O)[C@@H](O)[C@H]2O)(C(=O)O)C[C@@H]1O", "note": "[6′-SL, α-NeuNAc-(2→6)-β-D-Gal-(1→4)-D-Glc]", "values": [
      {"measurement": "escape time in the cognitive ability test (Morris water maze)", "setting": "[1]", "value": "definitely fast"},
      {"measurement": "expression levels of PGC-1α and related genes vs SL non-administration (Huntington's disease model) group", "setting": "PGC-1α and related genes", "value": "very excellent"},
      {"measurement": "expression levels of PGC-1α and related genes vs normal control group", "setting": "PGC-1α and related genes", "value": "somewhat lower"}
    ]}
  ]
}
